Data taken from US20200022964A1, “COMPOSITIONS AND METHODS FOR TREATMENT OF INFLAMMATORY AUTOIMMUNE DISEASES” (New York University, priority 2018, published 2020).

What was measured:
[1] = system: TNF-α; assay: ELISA of TNF-α induced release of IL-1β and IL-6 in BMDMs; format: cell-based, mice; settings: TNF-α 10 ng/mL; for TNF-α induced releases of IL-1β and IL-6: FFD 1, 10 μM, TFD 0.1, 1 μM, 48 hours
Protocol: Primary bone marrow derived macrophages (BMDMs) extraction. BMDMs were isolated from C57BL/6 and TNF-tg mice. After mice were sacrificed by cervical dislocation, the tibia and femur were isolated and both ends of the bones were cut to open the medullary cavity. Bone marrow cells were collected by centrifuge at 13000 g for 90 seconds and seeded in 6-well plates. Prior to their use in experiments, M-CSF (10 ng/ml, 576406, Biolegend) was added for 6 days to the BMDM culture medium.

[2] = system: TNF-α/NF-κB signaling pathway; assay: NF-κB beta-lactamase reporter gene assay in NF-κB-bla THP-1 cell line; format: cell-based; settings: THP-1 cells, drug overnight; for TNF-α-activated NF-κB reporter gene: then TNF-α 6 hours
Protocol: In vitro and in vivo screen of FDA-approved drug library. NF-κB-bla THP-1 cell line in which NF-κB beta-lactamase reporter gene was stably integrated, RAW 264.7 macrophages in which NF-κB luciferase reporter gene was transiently transfected, and TNF-tg:NF-κB-Luc double mutant reporter mice were employed to screen the drug library. Screening FDA approved drugs in vitro. NF-κB-bla THP-1 cell line ([…], Invitrogen) was cultured in 96-well plates and FDA approved drugs (10 μM, L1300, Selleckchem) were added and cultured overnight. Next day, […] Loading Kit with CCF2-AM ([…], Invitrogen) was used to detect the β-lactamase activity via SpectraMax i3x system (5025027A Molecular Devices) with excitation wavelength at 409 nm and emission wavelengths at 520 nm or 470 nm. This process was performed in triplicate. Subsequently, the drugs from first screening that could inhibit TNF-α induced NF-κB activity underwent further screening by NF-κB luciferase assay. After transfection with NF-κB luciferase reporter gene and Renilla plasmids for 8 hours, cells were treated with drugs (10 μM) overnight, followed by TNF-α (10 ng/ml) stimulation for 6 hours, then bioluminescence was measured by Dual-Luciferase® Reporter Assay kit (E1910, Promega). The data were analyzed by Graphpad Prism software (GraphPad Software, San Diego, Calif.).

[3] = system: osteoclastogenesis in BMDMs; assay: Osteoclastogenesis in BMDMs (TRAP staining); format: cell-based, mice; settings: RANKL 100 ng/mL and TNF-α 10 ng/mL; FFD 10 μM, TFD 1 μM; 4 days
Protocol: Osteoclastogenesis. […] The cells were fixed with formalin and stained for tartrate-resistant acid phosphatase (TRAP) with a TRAP solution containing 100 mM sodium acetate buffer (pH 5.0), 50 mM sodium tartrate, 0.1 mg/ml sodium naphtol AS-MX phosphate, 0.6 mg/ml Fast Violet LB, and 0.1% Triton X-100. TRAP-positive cells appeared dark red and TRAP-positive multinucleated cells containing more than three nuclei (TRAP-MNCs) were visualized using light microscopy.

[4] = system: TNF-α; assay: TNF-α induced cytokine expression and release in RAW264.7 cells (incl. H1R1 siRNA and cPLA2 knockout); format: cell-based; settings: FFD 10 μM; for effect of suppression of H1R1 on the inhibition of TNF-induced cytokine release: RAW264.7 cells with H1R1 siRNAs
Protocol: qRT-PCR. Total RNA was extracted by RNeasy plus mini kit (74106, QIAGEN) and cDNA was synthesized using SuperScript® Reverse Transcriptase (M314C, promega Corporation). SYBR® Green PCR Master Mix (4309155, Applied Biosystems) was used to perform quantitative real-time PCR (qRT-PCR) and the reaction was performed on a StepOnePlus™ real-time PCR Systems (Applied Biosystems). The mRNA expression level of target genes was calculated by ΔΔCT and fold changes of mRNA levels were normalized to GAPDH.
Knock down of H1R1 by siRNA. BMDMs were transfected with siH1R1, or scrambled control siRNA (scRNAi) using lipofectamine 2000 (11668-019, Invitrogen) according to manufacturer's specifications. After 24 hours, supernatants and lysate were collected to detect cytokine secretion and protein expression, respectively.
Knock out of cPAL2 by CRISPR-Cas9. Knockout cells were generated in accordance with a previously published protocol. gRNA was inserted into the lentiCRISPR v2 vector. Packaging the inserted vector into lentivirus was completed by co-transfecting the lentiCRISPR v2, VSVG and ΔR6.7 in 293T cells. After packaging, we transfected the virus into RAW264.7 cells over 8 hours. Puromycin (2 μg/ml) was used to select the stably transfected RAW264.7 cells

[5] = system: M1 and M2 macrophages; assay: Macrophage polarization in vitro (BMDMs) and in vivo (spleen of TNF-α Tg mice); format: cell-based; settings: in vitro BMDMs and spleen of treated TNF-α Tg mice
Protocol: Macrophage polarization. […] INFγ (25 ng/mL) and LPS (250 ng/mL) were added to BMDMs to induce M1 polarization while IL-4(20 ng/mL) was used to induce M2 polarization, with or without adding FFD (1 or 10 μM) or TFD (0.1 or 1μM), and cells were cultured for 24 hours. mRNA were extracted by RNA Mini kit (74106, QIAGEN).
Frozen splenic tissue specimens from TNFα Tg mice treated with or without TFD or FFD were stained and analyzed dual immunofluorescence. All sections were permeabilized with 0.1% NP40 in PBS, and then blocked in 5% donkey serum for 30 min at RT, followed by incubated with anti-IFNg (Th1), anti-IL-4 (Th2), anti-IL17 (Th17) and anti-foxp3 (Treg) diluted in 5% donkey serum at 4° C. overnight. On the second day, after washed 3 times in PBS, the sections were incubated with Cy2-conjugated donkey anti-rat IgG for 30 min at RT. After wash, the sections were furthered stained with FITC conjugated anti-CD4 for I hour at RT. To determine the macrophage polarization, sections were double stained with anti-CD68 and iNOS (M1) or CD206 (M2). DAPI were used to stain the nuclei. The fluorescence intensity of cells was quantified by Image J software.

[6] = target: TNF-α and TNFR1 (Homo sapiens, UniProt P19438); assay: Solid phase binding of TNF-α to TNFR1
TNF-α and TNFR1, sequence (P19438 30-211 limits assumed, species assumed): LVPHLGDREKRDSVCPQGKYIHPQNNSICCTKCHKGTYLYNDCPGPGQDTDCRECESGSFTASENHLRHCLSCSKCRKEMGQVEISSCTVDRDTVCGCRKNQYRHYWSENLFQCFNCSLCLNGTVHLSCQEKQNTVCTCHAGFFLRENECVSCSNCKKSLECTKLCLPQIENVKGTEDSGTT
Protocol: Solid phase binding. […] Briefly, a 96-well ELISA plate was coated with 100 μL of 0.5 ng/μL TNFR1 at 4° C. overnight. The plate was washed with PBST 5 times, and 300 μL blocking buffer was added to each well followed by incubation at room temperature for 1 hour. After discarding the blocking buffer, 50 μL buffer containing drugs at concentrations ranging from 0.1 nM to 10^5 nM were added to the plate for 1 hour at room temperature. Three wells incubated with bovine serum albumin (BSA) served as negative controls and three wells containing TNF-α were set as positive controls. Without washing, 50 μL buffer containing 10 ng biotin-labeled TNF-α was added to each well and incubated at room temperature for 2 hours. The plate was washed and 100 μL buffer containing streptavidin-HPR was added and incubated at room temperature for 30 minutes. After a final wash, 100 μL TMB buffer was added to each well and the reaction was stopped when the positive control group turned blue. The plate was read by automatic plate reader at 450 nm.

| binding of TNF-α to TNFR1 in vitro [6] | Structure (SMILES) | effect of AA supplementation on inhibition of TNF-α induced release of IL-1β and IL6 ([1]; AA 10 μM, FFD 10 μM) | TNF-α induced releases of IL-1β and IL-6 [1] | AA activation of the NF-κB reporter gene ([2]; then AA 6 hours) | TNF-α-activated NF-κB reporter gene [2] | TNF-α-activated NF-κB reporter gene ([2]; listed as FFD) | TNF-α-mediated osteoclastogenesis [3] | effect of suppression of H1R1 on the inhibition of TNF-induced cytokine release [4] | inhibition of TNF-α activity (IL-1β, IL-6 release) in cPLA2 knockout cells ([4]; cPLA2 KO RAW264.7 cells) | anti-inflammatory M2 macrophages [5] | inflammatory M1 macrophages [5] |
| --- | --- | --- | --- | --- | --- | --- | --- | --- | --- | --- | --- |
| did not affect | CC(C)(C(=O)O)c1ccc(C(O)CCCN2CCC(C(O)(c3ccccc3)c3ccccc3)CC2)cc1 (stereo not drawn) [fexofenadine] | eliminated the inhibitory influence | abolished | did not constrain | inhibited | inhibit | markedly inhibited | did not affect | entirely or almost entirely lost | markedly increased | significantly inhibited |
| did not affect | CC(C)(C)c1ccc(C(O)CCCN2CCC(C(O)(c3ccccc3)c3ccccc3)CC2)cc1 (stereo not drawn) [terfenadine] |  | abolished |  | inhibit |  | markedly inhibited | did not affect |  | markedly increased | significantly inhibited |
